This is an account of results in patent US20020150621A1, “Lipid-protein-sugar particles for drug delivery” (priority 2000, published 2002).

Read-outs that look alike come from different tables or passages of the source.

The conditions of data set [1]: adult rats; Kohane et al. 1998; cited from earlier work.
Data set [2] in a line: Systemic distribution/toxicity after sciatic injection (contralateral thermal latency, deaths). The conditions noted are these: 1.5 ml of 0.5% bupivacaine (7.5 mg), n=6. In kind it is in vivo, rat. The protocol: (§1) Prior to nerve block injections, rats were anesthetized briefly (<2 minutes) with halothane. […] A 20G needle was introduced postero-medial to the greater trochanter, pointing in an anteromedial direction (Thalhammer et al. “Neurologic evaluation of the rat during sciatic nerve block with lidocaine” Anesthesiology 82:1013-1025, 1995; incorporated herein by reference). Once bone was contacted, the needle was withdrawn 1 mm and the particle-containing solution was injected. The left leg was always used for blocks; the right served as control.
Nociceptive block was assessed by a modified hotplate test (Masters et al. “Prolonged regional nerve blockade by controlled release of local anesthetic from a biodegradable polymer matrix” Anesthesiology 79:1-7, 1993; incorporated herein by reference). Hind paws were exposed in sequence (left then right) to a hot plate at 56° C. (Model 39D Hot Plate Analgesia Meter, IITC Inc., Woodland Hills, Calif.), and the time (latency) until paw withdrawal was measured by a stopwatch. Thermal latency is a measure of the intensity of analgesia. If the paw remained in contact for 12 seconds, it was removed by the experimenter to avoid injury to the animal or the development of hyperalgesia. This test was repeated three times for each rat at every time-point.

Data set [3] is described as follows: Median lethal dose of bupivacaine (literature). Particulars: in a 350 g rat. Format: in vivo. The protocol: Encapsulation improved the safety and efficacy of bupivacaine. […] For this experiment larger rats (approx. 410 g) were used than those used in the remainder of the study, in order to avoid animal death (the median lethal dose of bupivacaine in adult rats is 30±5 mg/kg (Kohane et al. “Sciatic nerve blockade in infant, adolescent, and adult rats: a comparison of ropivacaine and bupivacaine” Anesthesiology 89:1199-1208, 1998; incorporated herein by reference), or 10.5 mg in a 350 g rat). […] It was not possible to directly compare the efficacy of bupivacaine solution and 50% bupivacaine microspheres, since the dose of bupivacaine contained in 75 mg of those microspheres ([…]) is approximately three times the median lethal dose of the unencapsulated drug (Kohane et al. “Sciatic nerve blockade in infant, adolescent, and adult rats: a comparison of ropivacaine and bupivacaine” Anesthesiology 89:1199-1208, 1998). Nevertheless, it is obvious that the microspheres increased the safety of bupivacaine.

The next data set relates to sciatic nerve. In words: Sciatic nerve block, thermal nociception (modified hotplate test). Particulars: 1.5 ml of 0.5% bupivacaine (7.5 mg), n=6, rats approx. 410 g. In kind it is in vivo, rat. The procedure:
as §1
The effectiveness of block was measured at various time points, applying the methods of Thalhammer et al. (Thalhammer et al. “Neurologic evaluation of the rat during sciatic nerve block with lidocaine” Anesthesiology 82:1013-1025, 1995; […]; incorporated herein by reference).
Nociceptive block was assessed by a modified hotplate test (Masters et al. “Prolonged regional nerve blockade by controlled release of local anesthetic from a biodegradable polymer matrix” Anesthesiology 79:1-7, 1993; incorporated herein by reference). Hind paws were exposed in sequence (left then right) to a hot plate at 56° C. (Model 39D Hot Plate Analgesia Meter, IITC Inc., Woodland Hills, Calif.), and the time (latency) until paw withdrawal was measured by a stopwatch. Thermal latency is a measure of the intensity of analgesia. […]

For the compound `CCCCN1CCCCC1C(=O)Nc1c(C)cccc1C` (stereo not shown) [bupivacaine], the figures for the median lethal dose in data set [1] and in data set [3] were 30 ± 5 mg/kg and 10.5 mg, respectively. Moreover, the “rats with severe signs of systemic toxicity (thermal latency=12 seconds in the uninjected leg)” value in data set [2] is listed as “one of those rats”. This compound yielded a duration of block in the data set with sciatic nerve of 166 ± 55 min.
